ChEMBL document CHEMBL5370612, “Cytotoxic Epipolythiodioxopiperazines from the Deep-Sea-Derived Fungus Exophiala mesophila MCCC 3A00939” (J Nat Prod, 2023)
pIC50: −log10 of the molar value.

Columns and labels:
[1] = Cytotoxicity against human L02 cells by SRB method; assay type: toxicity, cell-based
K562 = assay: Cytotoxicity against human K562 cells by MTT method; assay type: functional, cell-based
ASPC1 = assay: Cytotoxicity against human ASPC1 cells by SRB method; assay type: functional, cell-based
H69AR = assay: Cytotoxicity against human NCI-H69AR cells by SRB method; assay type: functional, cell-based
MDA-MB-231 = assay: Cytotoxicity against human MDA-MB-231 cells by SRB method; assay type: functional, cell-based

Row | SMILES | pIC50 [1] | pIC50 (K562) | pIC50 (ASPC1) | pIC50 (H69AR) | pIC50 (MDA-MB-231)
1 | CC(=O)O[C@H]1C=COC=C2C[C@@]34SS[C@]5(CC6=COC=C[C@H](O)[C@H]6N5C3=O)C(=O)N4[C@@H]21 [ARANOTIN] | 4.80 | 5.85 | 4.96 | 5.77 | 6.15
2 | CS[C@@]12CC3=COC=C[C@H](OC(=O)CC(C)=C(C)C)[C@H]3N1C(=O)[C@]1(SC)CC3=COC=C[C@H](O)[C@H]3N1C2=O | < 4.52 | < 4.52 | < 4.52 | < 4.52 | < 4.52
3 | CC(C)=C(C)CC(=O)O[C@H]1C=COC=C2C[C@@]34SSSS[C@]5(CC6=COC=C[C@H](O)[C@H]6N5C3=O)C(=O)N4[C@@H]21 | 5.07 | 5.64 | 4.89 | 5.23 | 5.43
4 | CS[C@@]12CC3=COC=C[C@H](OC(C)=O)[C@H]3N1C(=O)[C@]1(SC)CC3=COC=C[C@H](OC(=O)CC(C)=C(C)C)[C@H]3N1C2=O | < 4.52 | < 4.52 | < 4.52 | < 4.52 | 4.54
5 | CS[C@@]12CC3=COC=C[C@H](OC(C)=O)[C@H]3N1C(=O)[C@]1(SC)CC3=COC=C[C@H](O)[C@H]3N1C2=O | < 4.52 | < 4.52 | < 4.52 | < 4.52 | < 4.52
6 | O=C(Cc1ccccc1)O[C@H]1C=COC=C2C[C@@]34SSSS[C@]5(CC6=COC=C[C@H](O)[C@H]6N5C3=O)C(=O)N4[C@@H]21 | 4.74 | 5.51 | 4.60 | 5.44 | 5.37
7 | CS[C@@]12CC3=COC=C[C@H](O)[C@H]3N1C(=O)[C@]1(SC)CC3=COC=C[C@H](O)[C@H]3N1C2=O | < 4.52 | < 4.52 | < 4.52 | < 4.52 | < 4.52
8 | CS[C@@]12CC3=COC=C[C@H](OC(C)=O)[C@H]3N1C(=O)[C@]1(SC)CC3=COC=C[C@H](OC(C)=O)[C@H]3N1C2=O | < 4.52 | < 4.52 | < 4.52 | < 4.52 | < 4.52
9 | COc1cccc2c1C(=O)c1c(O)c3c(c(O)c1C2=O)C[C@@](O)(C(=O)CO)C[C@@H]3O[C@H]1C[C@H](N)[C@H](O)[C@H](C)O1 [DOXORUBICIN] | > 6.00 | > 6.00 | > 6.00 | > 6.00 | > 6.00
